ChEMBL document CHEMBL1140671, “Interaction of O-(undec-10-en)-yl-D-glucose derivatives with the Plasmodium falciparum hexose transporter (PfHT)” (Bioorg Med Chem Lett, 2007)
Activity calls are given as the source filed them. The calls are words filed in the database; no cut-off is given here.

How the values were obtained:
Hexose transporter 1 = target: T1, Hexose transporter 1 (Plasmodium falciparum, UniProt O97467); experiment: Inhibition of [3H]glucose uptake at Plasmodium falciparum HT expressed in Xenopus laevis oocytes; assay type: cell-based, Oocyte
T1 sequence (O97467 whole entry): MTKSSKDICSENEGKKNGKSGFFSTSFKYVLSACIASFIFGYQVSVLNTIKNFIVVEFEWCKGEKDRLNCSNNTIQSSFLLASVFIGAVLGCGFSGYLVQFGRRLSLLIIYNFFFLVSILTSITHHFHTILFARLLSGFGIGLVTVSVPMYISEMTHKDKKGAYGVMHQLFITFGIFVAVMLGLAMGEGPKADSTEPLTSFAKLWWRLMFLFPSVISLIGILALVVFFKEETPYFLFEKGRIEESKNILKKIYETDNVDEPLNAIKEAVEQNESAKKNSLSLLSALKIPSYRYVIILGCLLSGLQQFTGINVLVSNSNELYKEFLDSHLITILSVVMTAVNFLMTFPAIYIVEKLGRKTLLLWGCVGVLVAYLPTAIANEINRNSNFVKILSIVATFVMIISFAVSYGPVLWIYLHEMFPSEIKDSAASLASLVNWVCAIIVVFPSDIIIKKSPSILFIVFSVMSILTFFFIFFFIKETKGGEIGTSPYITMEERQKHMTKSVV

[1] = target: T2, Solute carrier family 2, facilitated glucose transporter member 1 (Homo sapiens, UniProt P11166); experiment: (§1) Inhibition of [3H]glucose uptake at mammalian GLUT1 expressed in Xenopus laevis oocytes; assay type: cell-based, Oocyte
T2 sequence (P11166 whole entry): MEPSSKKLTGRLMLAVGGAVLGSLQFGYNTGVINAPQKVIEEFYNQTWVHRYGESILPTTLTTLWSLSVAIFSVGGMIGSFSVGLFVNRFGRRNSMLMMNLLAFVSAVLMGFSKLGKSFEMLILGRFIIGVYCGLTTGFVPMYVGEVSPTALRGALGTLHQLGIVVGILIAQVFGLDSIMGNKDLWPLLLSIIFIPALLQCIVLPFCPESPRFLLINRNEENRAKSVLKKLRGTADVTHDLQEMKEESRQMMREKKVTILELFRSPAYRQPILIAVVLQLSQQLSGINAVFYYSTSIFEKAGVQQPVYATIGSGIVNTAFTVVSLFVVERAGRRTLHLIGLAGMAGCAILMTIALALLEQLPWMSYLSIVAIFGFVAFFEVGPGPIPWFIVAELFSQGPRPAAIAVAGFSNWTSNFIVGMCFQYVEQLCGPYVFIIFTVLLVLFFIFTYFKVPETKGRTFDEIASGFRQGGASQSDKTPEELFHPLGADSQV

[2] = target: T3, Solute carrier family 2, facilitated glucose transporter member 1 (Homo sapiens) (UniProt P11166); experiment: as §1; assay type: cell-based; settings: Oocyte
T3 sequence (whole entry): T2 sequence (P11166 whole entry)

Plasmodium falciparum = experiment: Antiplasmodial activity against Plasmodium falciparum 3D7; assay type: functional, organism-based

C=CCCCCCCCCCO[C@@H]1O[C@H](CO)[C@@H](O)[C@H](O)[C@H]1O
Ki (Hexose transporter 1): > 500 µM
Ki [1]: > 500 µM

C=CCCCCCCCCCO[C@H]1C(O)O[C@H](CO)[C@@H](O)[C@@H]1O (stereo partly drawn)
Ki (Hexose transporter 1): 2 µM
Activity [2]: inactive
IC50 (Plasmodium falciparum): 8.2 µM

C=CCCCCCCCCCO[C@H](CO)[C@H]1OC(O)[C@H](O)[C@H]1O (stereo partly drawn)
Ki (Hexose transporter 1): 1500 µM
Activity [2]: inactive

C=CCCCCCCCCCO[C@H]1O[C@H](CO)[C@@H](O)[C@H](O)[C@H]1O
Ki (Hexose transporter 1): > 500 µM
Activity [2]: inactive

C=CCCCCCCCCCO[C@@H]1O[C@H]([C@H](O)CO)[C@H](O)[C@H]1O
Ki (Hexose transporter 1): > 500 µM
Activity [2]: inactive

C=CCCCCCCCCCO[C@H]1[C@H](O)[C@@H](CO)OC(O)[C@@H]1O (stereo partly drawn)
Ki (Hexose transporter 1): 26 µM
Ki [1]: 98 µM
IC50 (Plasmodium falciparum): 123 µM

C=CCCCCCCCCCO[C@H]1O[C@H]([C@H](O)CO)[C@H](O)[C@H]1O
Ki (Hexose transporter 1): > 500 µM
Activity [2]: inactive

C=CCCCCCCCCCOC[C@H]1OC(O)[C@H](O)[C@@H](O)[C@@H]1O (stereo partly drawn)
Ki (Hexose transporter 1): 2000 µM
Ki [1]: 400 µM
